According to the NIST ThermoML archive (doi:10.1021/je4000372):
± gives the expanded uncertainty stated by the source.

Experiment: xn = mol fraction of the nth substance listed
Conditions: 101 kPa, Liquid; for viscosity: Capillary tube (Ostwald / Ubbelohde) method; for mass density: Pycnometric method

CCCCOCCOCCO [3,6-dioxa-1-decanol] + NCCO
viscosity (293.15 K, x1 = 0.04025): 23.11 ± 0.73 mPa·s | viscosity (293.15 K, x1 = 0.08607): 21.86 ± 0.69 mPa·s | viscosity (293.15 K, x1 = 0.1392): 20.39 ± 0.64 mPa·s | viscosity (293.15 K, x1 = 0.2008): 18.81 ± 0.59 mPa·s | viscosity (293.15 K, x1 = 0.2732): 17.01 ± 0.54 mPa·s | viscosity (293.15 K, x1 = 0.3602): 15.02 ± 0.47 mPa·s | viscosity (293.15 K, x1 = 0.4111): 13.86 ± 0.44 mPa·s | viscosity (293.15 K, x1 = 0.4671): 12.72 ± 0.4 mPa·s | viscosity (293.15 K, x1 = 0.4977): 12.16 ± 0.38 mPa·s | viscosity (293.15 K, x1 = 0.6007): 10.46 ± 0.33 mPa·s | viscosity (293.15 K, x1 = 0.7204): 8.65 ± 0.27 mPa·s | viscosity (293.15 K, x1 = 0.7699): 8.02 ± 0.25 mPa·s | viscosity (293.15 K, x1 = 0.8163): 7.42 ± 0.23 mPa·s | viscosity (293.15 K, x1 = 0.9331): 6.34 ± 0.2 mPa·s | viscosity (293.15 K, x1 = 1): 5.84 ± 0.18 mPa·s | mass density (293.15 K, x1 = 0.04025): 1010.3 ± 2.1 kg/m3 | mass density (293.15 K, x1 = 0.08607): 1004.5 ± 2.1 kg/m3 | mass density (293.15 K, x1 = 0.1392): 998.5 ± 2.1 kg/m3 | mass density (293.15 K, x1 = 0.2008): 992.5 ± 2.1 kg/m3 | mass density (293.15 K, x1 = 0.2732): 986.4 ± 2.1 kg/m3 | mass density (293.15 K, x1 = 0.3602): 980.2 ± 2.1 kg/m3 | mass density (293.15 K, x1 = 0.4111): 976.9 ± 2.1 kg/m3 | mass density (293.15 K, x1 = 0.4671): 973.8 ± 2.1 kg/m3 | mass density (293.15 K, x1 = 0.4977): 972.1 ± 2.1 kg/m3 | mass density (293.15 K, x1 = 0.6007): 967.1 ± 2.1 kg/m3 | mass density (293.15 K, x1 = 0.7204): 962 ± 2 kg/m3 | mass density (293.15 K, x1 = 0.7699): 960.2 ± 2.1 kg/m3 | mass density (293.15 K, x1 = 0.8163): 958.5 ± 2.1 kg/m3 | mass density (293.15 K, x1 = 0.9331): 954.8 ± 2.1 kg/m3 | mass density (293.15 K, x1 = 1): 952.9 ± 2.1 kg/m3 | viscosity (303.15 K, x1 = 0.04025): 14.27 ± 0.46 mPa·s | viscosity (303.15 K, x1 = 0.08607): 13.61 ± 0.44 mPa·s | viscosity (303.15 K, x1 = 0.1392): 12.86 ± 0.41 mPa·s | viscosity (303.15 K, x1 = 0.2008): 11.99 ± 0.38 mPa·s | viscosity (303.15 K, x1 = 0.2732): 11.01 ± 0.35 mPa·s | viscosity (303.15 K, x1 = 0.3602): 9.83 ± 0.31 mPa·s | viscosity (303.15 K, x1 = 0.4111): 9.16 ± 0.29 mPa·s | viscosity (303.15 K, x1 = 0.4671): 8.51 ± 0.27 mPa·s | viscosity (303.15 K, x1 = 0.4977): 8.17 ± 0.26 mPa·s | viscosity (303.15 K, x1 = 0.6007): 7.18 ± 0.23 mPa·s | viscosity (303.15 K, x1 = 0.7204): 6.21 ± 0.2 mPa·s | viscosity (303.15 K, x1 = 0.7699): 5.82 ± 0.18 mPa·s | viscosity (303.15 K, x1 = 0.8163): 5.47 ± 0.17 mPa·s | viscosity (303.15 K, x1 = 0.9331): 4.62 ± 0.15 mPa·s | viscosity (303.15 K, x1 = 1): 4.23 ± 0.13 mPa·s | mass density (303.15 K, x1 = 0.04025): 1002.5 ± 2.1 kg/m3 | mass density (303.15 K, x1 = 0.08607): 996.6 ± 2.1 kg/m3 | mass density (303.15 K, x1 = 0.1392): 990.5 ± 2.1 kg/m3 | mass density (303.15 K, x1 = 0.2008): 984.2 ± 2.1 kg/m3 | mass density (303.15 K, x1 = 0.2732): 977.9 ± 2.1 kg/m3 | mass density (303.15 K, x1 = 0.3602): 971.5 ± 2.1 kg/m3 | mass density (303.15 K, x1 = 0.4111): 968.2 ± 2.1 kg/m3 | mass density (303.15 K, x1 = 0.4671): 964.9 ± 2.1 kg/m3 | mass density (303.15 K, x1 = 0.4977): 963.3 ± 2.1 kg/m3 | mass density (303.15 K, x1 = 0.6007): 958.1 ± 2 kg/m3 | mass density (303.15 K, x1 = 0.7204): 952.9 ± 2 kg/m3 | mass density (303.15 K, x1 = 0.7699): 951.1 ± 2 kg/m3 | mass density (303.15 K, x1 = 0.8163): 949.3 ± 2 kg/m3 | mass density (303.15 K, x1 = 0.9331): 945.5 ± 2 kg/m3 | mass density (303.15 K, x1 = 1): 943.5 ± 2 kg/m3 | viscosity (313.15 K, x1 = 0.04025): 9.52 ± 0.3 mPa·s | viscosity (313.15 K, x1 = 0.08607): 9.1 ± 0.29 mPa·s | viscosity (313.15 K, x1 = 0.1392): 8.62 ± 0.27 mPa·s | viscosity (313.15 K, x1 = 0.2008): 8.08 ± 0.26 mPa·s | viscosity (313.15 K, x1 = 0.2732): 7.47 ± 0.24 mPa·s | viscosity (313.15 K, x1 = 0.3602): 6.76 ± 0.21 mPa·s | viscosity (313.15 K, x1 = 0.4111): 6.37 ± 0.2 mPa·s | viscosity (313.15 K, x1 = 0.4671): 5.97 ± 0.19 mPa·s | viscosity (313.15 K, x1 = 0.4977): 5.77 ± 0.18 mPa·s | viscosity (313.15 K, x1 = 0.6007): 5.12 ± 0.16 mPa·s | viscosity (313.15 K, x1 = 0.7204): 4.42 ± 0.14 mPa·s | viscosity (313.15 K, x1 = 0.7699): 4.17 ± 0.13 mPa·s | viscosity (313.15 K, x1 = 0.8163): 3.96 ± 0.12 mPa·s | viscosity (313.15 K, x1 = 0.9331): 3.48 ± 0.11 mPa·s | viscosity (313.15 K, x1 = 1): 3.22 ± 0.1 mPa·s | mass density (313.15 K, x1 = 0.04025): 994.3 ± 2.1 kg/m3 | mass density (313.15 K, x1 = 0.08607): 988.5 ± 2.1 kg/m3 | mass density (313.15 K, x1 = 0.1392): 982.5 ± 2.1 kg/m3 | mass density (313.15 K, x1 = 0.2008): 976.4 ± 2.1 kg/m3 | mass density (313.15 K, x1 = 0.2732): 970.1 ± 2.1 kg/m3 | mass density (313.15 K, x1 = 0.3602): 963.7 ± 2.1 kg/m3 | mass density (313.15 K, x1 = 0.4111): 960.4 ± 2 kg/m3 | mass density (313.15 K, x1 = 0.4671): 957.2 ± 2 kg/m3 | mass density (313.15 K, x1 = 0.4977): 955.5 ± 2 kg/m3 | mass density (313.15 K, x1 = 0.6007): 950.3 ± 2 kg/m3 | mass density (313.15 K, x1 = 0.7204): 945.2 ± 2 kg/m3 | mass density (313.15 K, x1 = 0.7699): 943.3 ± 2 kg/m3 | mass density (313.15 K, x1 = 0.8163): 941.6 ± 2 kg/m3 | mass density (313.15 K, x1 = 0.9331): 937.7 ± 2 kg/m3 | mass density (313.15 K, x1 = 1): 935.7 ± 2 kg/m3 | viscosity (323.15 K, x1 = 0.04025): 6.64 ± 0.21 mPa·s | viscosity (323.15 K, x1 = 0.08607): 6.37 ± 0.2 mPa·s | viscosity (323.15 K, x1 = 0.1392): 6.07 ± 0.19 mPa·s | viscosity (323.15 K, x1 = 0.2008): 5.73 ± 0.18 mPa·s | viscosity (323.15 K, x1 = 0.2732): 5.33 ± 0.17 mPa·s | viscosity (323.15 K, x1 = 0.3602): 4.88 ± 0.15 mPa·s | viscosity (323.15 K, x1 = 0.4111): 4.63 ± 0.15 mPa·s | viscosity (323.15 K, x1 = 0.4671): 4.37 ± 0.14 mPa·s | viscosity (323.15 K, x1 = 0.4977): 4.23 ± 0.13 mPa·s | viscosity (323.15 K, x1 = 0.6007): 3.79 ± 0.12 mPa·s | viscosity (323.15 K, x1 = 0.7204): 3.34 ± 0.1 mPa·s | viscosity (323.15 K, x1 = 0.7699): 3.17 ± 0.1 mPa·s | viscosity (323.15 K, x1 = 0.8163): 3.02 ± 0.09 mPa·s | viscosity (323.15 K, x1 = 0.9331): 2.69 ± 0.08 mPa·s | viscosity (323.15 K, x1 = 1): 2.51 ± 0.08 mPa·s | mass density (323.15 K, x1 = 0.04025): 986.2 ± 2.1 kg/m3 | mass density (323.15 K, x1 = 0.08607): 980.4 ± 2.1 kg/m3 | mass density (323.15 K, x1 = 0.1392): 974.3 ± 2.1 kg/m3 | mass density (323.15 K, x1 = 0.2008): 968.1 ± 2.1 kg/m3 | mass density (323.15 K, x1 = 0.2732): 961.7 ± 2.1 kg/m3 | mass density (323.15 K, x1 = 0.3602): 955.1 ± 2 kg/m3 | mass density (323.15 K, x1 = 0.4111): 951.8 ± 2 kg/m3 | mass density (323.15 K, x1 = 0.4671): 948.4 ± 2 kg/m3 | mass density (323.15 K, x1 = 0.4977): 946.7 ± 2 kg/m3 | mass density (323.15 K, x1 = 0.6007): 941.5 ± 2 kg/m3 | mass density (323.15 K, x1 = 0.7204): 936.3 ± 2 kg/m3 | mass density (323.15 K, x1 = 0.7699): 934.4 ± 2 kg/m3 | mass density (323.15 K, x1 = 0.8163): 932.7 ± 2 kg/m3 | mass density (323.15 K, x1 = 0.9331): 928.7 ± 2 kg/m3 | mass density (323.15 K, x1 = 1): 926.6 ± 2 kg/m3 | viscosity (333.15 K, x1 = 0.04025): 4.82 ± 0.15 mPa·s | viscosity (333.15 K, x1 = 0.08607): 4.65 ± 0.15 mPa·s | viscosity (333.15 K, x1 = 0.1392): 4.43 ± 0.14 mPa·s | viscosity (333.15 K, x1 = 0.2008): 4.19 ± 0.13 mPa·s | viscosity (333.15 K, x1 = 0.2732): 3.91 ± 0.12 mPa·s | viscosity (333.15 K, x1 = 0.3602): 3.61 ± 0.11 mPa·s | viscosity (333.15 K, x1 = 0.4111): 3.45 ± 0.11 mPa·s | viscosity (333.15 K, x1 = 0.4671): 3.28 ± 0.1 mPa·s | viscosity (333.15 K, x1 = 0.4977): 3.19 ± 0.1 mPa·s | viscosity (333.15 K, x1 = 0.6007): 2.91 ± 0.09 mPa·s | viscosity (333.15 K, x1 = 0.7204): 2.59 ± 0.08 mPa·s | viscosity (333.15 K, x1 = 0.7699): 2.48 ± 0.08 mPa·s | viscosity (333.15 K, x1 = 0.8163): 2.37 ± 0.07 mPa·s | viscosity (333.15 K, x1 = 0.9331): 2.11 ± 0.07 mPa·s | viscosity (333.15 K, x1 = 1): 2 ± 0.06 mPa·s | mass density (333.15 K, x1 = 0.04025): 978.2 ± 2.1 kg/m3 | mass density (333.15 K, x1 = 0.08607): 972.5 ± 2.1 kg/m3 | mass density (333.15 K, x1 = 0.1392): 966.4 ± 2.1 kg/m3 | mass density (333.15 K, x1 = 0.2008): 960.1 ± 2 kg/m3 | mass density (333.15 K, x1 = 0.2732): 953.7 ± 2 kg/m3 | mass density (333.15 K, x1 = 0.3602): 947.1 ± 2 kg/m3 | mass density (333.15 K, x1 = 0.4111): 943.7 ± 2 kg/m3 | mass density (333.15 K, x1 = 0.4671): 940.4 ± 2 kg/m3 | mass density (333.15 K, x1 = 0.4977): 938.7 ± 2 kg/m3 | mass density (333.15 K, x1 = 0.6007): 933.5 ± 2 kg/m3 | mass density (333.15 K, x1 = 0.7204): 928.3 ± 2 kg/m3 | mass density (333.15 K, x1 = 0.7699): 926.4 ± 2 kg/m3 | mass density (333.15 K, x1 = 0.8163): 924.7 ± 2 kg/m3 | mass density (333.15 K, x1 = 0.9331): 920.7 ± 2 kg/m3 | mass density (333.15 K, x1 = 1): 918.5 ± 2 kg/m3
